Columns and labels:
Assay type in all cases: in vivo
Setaria faberi (SETFA) [1] = test: Post-emergence Test (glasshouse, percentage damage to the plant); settings: post-emergence spray, 1000 g/ha unless otherwise stated, evaluated after 13 days
Procedure, shortened: (§1)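 Spray treatment of sown glasshouse pots at 1000 g/ha (default rate), vehicle acetone/water 50:50 plus 0.5% Tween 20. Read-out: percentage damage after 13 days, converted to a score where 5 denotes 81-100% and 1 denotes 0-20%.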

Zea mays (ZEAMX) [2] = test: as above; settings: post-emergence spray, 1000 g/ha unless otherwise stated, evaluated after 13 days
Procedure, shortened: as §1

[3] = system: Abutilon theophrasti (ABUTH); test: as above; settings: post-emergence spray, 1000 g/ha unless otherwise stated, evaluated after 13 days
Procedure, shortened: (§2)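 Seeds are sown in standard soil under controlled glasshouse conditions. The pots are then sprayed at 1000 g/ha, unless otherwise stated, with compound in acetone/water (50:50) containing 0.5% Tween 20. After 13 days further growth, percentage plant damage is scored from 1 (0-20%) to 5 (81-100%).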

[4] = system: Ipomoea hederacea (IPOHE); test: as above; settings: post-emergence spray, 1000 g/ha unless otherwise stated, evaluated after 13 days
Procedure, shortened: as §1

[5] = system: Echinochloa crus-galli (ECHCG); test: as above; settings: post-emergence spray, 1000 g/ha unless otherwise stated, evaluated after 13 days
Procedure, shortened: as §2

[6] = system: Amaranthus retoflexus (AMARE); test: as above; settings: post-emergence spray, 1000 g/ha unless otherwise stated, evaluated after 13 days
Procedure, shortened: as §2

Setaria faberi (SETFA) [7] = test: Pre-emergence Test (glasshouse, percentage damage to the plant); settings: 1000 g/ha unless otherwise stated, five-point scale
[8] = system: Abutilon theophrasti (ABUTH); test: as above; settings: 1000 g/ha unless otherwise stated, five-point scale
Zea mays (ZEAMX) [9] = test: as above; settings: 1000 g/ha unless otherwise stated, five-point scale
[10] = system: Amaranthus retoflexus (AMARE); test: as above; settings: 1000 g/ha unless otherwise stated, five-point scale
[11] = system: Ipomoea hederacea (IPOHE); test: as above; settings: 1000 g/ha unless otherwise stated, five-point scale
[12] = system: Echinochloa crus-galli (ECHCG); test: as above; settings: 1000 g/ha unless otherwise stated, five-point scale

| Compound | Post-emergence Test SETFA, percentage damage to the plant (five-point scale) (Setaria faberi (SETFA) [1]) | Post-emergence Test ZEAMX, percentage damage to the plant (five-point scale) (Zea mays (ZEAMX) [2]) | Post-emergence Test ABUTH, percentage damage to the plant (five-point scale) [3] | Post-emergence Test IPOHE, percentage damage to the plant (five-point scale) [4] | Post-emergence Test ECHCG, percentage damage to the plant (five-point scale) [5] | Post-emergence Test AMARE, percentage damage to the plant (five-point scale) [6] | percentage damage to the plant, SETFA (Setaria faberi (SETFA) [7]) | percentage damage to the plant, ABUTH [8] | percentage damage to the plant, ZEAMX (Zea mays (ZEAMX) [9]) | percentage damage to the plant, AMARE [10] | percentage damage to the plant, IPOHE [11] | percentage damage to the plant, ECHCG [12] |
| --- | --- | --- | --- | --- | --- | --- | --- | --- | --- | --- | --- | --- |
| CCOC(=O)c1c(-c2ccc(Br)c(F)c2)n(CC)c(C)c(-c2ccc(Cl)cc2)c1=O [Compound 139, ethyl 2-(4-bromo-3-fluoro-phenyl)-5-(4-chlorophenyl)-1-ethyl-6-methyl-4-oxo-pyridine-3-carboxylate] | 3 (3=41-60%) | 2 (2=21-40%) | 4 (4=61-80%) | 1 (1=0-20%) | 2 (2=21-40%) | 3 (3=41-60%) | 0 | 0 | 0 | 0 | 0 | 0 |
| CCn1c(C)c(-c2cccc(C#N)c2)c(=O)c(C(=O)O)c1-c1ccnc(Cl)c1 [Compound 141, 2-(2-chloro-4-pyridyl)-5-(3-cyanophenyl)-1-ethyl-6-methyl-4-oxo-pyridine-3-carboxylic acid] | 0 | 0 | 0 | 0 | 0 | 0 | 0 | 0 | 0 | 0 | 0 | 0 |
| CCn1c(C)c(-c2ccc(C#N)cc2)c(=O)c(C(=O)O)c1-c1ccnc(Cl)c1 [Compound 142, 2-(2-chloro-4-pyridyl)-5-(4-cyanophenyl)-1-ethyl-6-methyl-4-oxo-pyridine-3-carboxylic acid] | 2 (2=21-40%) | 1 (1=0-20%) | 1 (1=0-20%) | 2 (2=21-40%) | 3 (3=41-60%) | 0 | 1 (1=0-20%) | 0 | 0 | 0 | 0 | 1 (1=0-20%) |
| CCn1c(C)c(-c2ccc(Cl)cc2)c(=O)c(C(=O)O)c1-c1ccnc(Cl)c1 [Compound 143, 5-(4-chlorophenyl)-2-(2-chloro-4-pyridyl)-1-ethyl-6-methyl-4-oxo-pyridine-3-carboxylic acid] | 4 (4=61-80%) | 4 (4=61-80%) | 4 (4=61-80%) | 4 (4=61-80%) | 4 (4=61-80%) | 2 (2=21-40%) | 5 (5=81-100%) | 3 (3=41-60%) | 3 (3=41-60%) | 1 (1=0-20%) | 1 (1=0-20%) | 5 (5=81-100%) |
| CCn1c(C)c(-c2cccc(Cl)c2)c(=O)c(C(=O)O)c1-c1ccnc(Cl)c1 [Compound 144, 5-(3-chlorophenyl)-2-(2-chloro-4-pyridyl)-1-ethyl-6-methyl-4-oxo-pyridine-3-carboxylic acid] | 3 (3=41-60%) | 2 (2=21-40%) | 2 (2=21-40%) | 2 (2=21-40%) | 2 (2=21-40%) | 2 (2=21-40%) | 4 (4=61-80%) | 1 (1=0-20%) | 2 (2=21-40%) | 1 (1=0-20%) | 2 (2=21-40%) | 4 (4=61-80%) |
| CCn1c(C)c(-c2ccc(C#N)cc2)c(=O)c(C(=O)O)c1-c1ccc(Cl)c(Cl)n1 [Compound 146, 5-(4-cyanophenyl)-2-(5,6-dichloro-2-pyridyl)-1-ethyl-6-methyl-4-oxo-oyridine-3-carboxylic acid] | 4 (4=61-80%) | 3 (3=41-60%) | 3 (3=41-60%) | 4 (4=61-80%) | 4 (4=61-80%) | 2 (2=21-40%) | 4 (4=61-80%) | 1 (1=0-20%) | 1 (1=0-20%) | 1 (1=0-20%) | 0 | 4 (4=61-80%) |
| CCn1c(C)c(-c2cccc(C#N)c2)c(=O)c(C(=O)O)c1-c1ccc(Cl)c(Cl)n1 [Compound 147, 5-(3-cyanophenyl)-2-(5,6-dichloro-2-pyridyl)-1-ethyl-6-methyl-4-oxo-pyridine-3-carboxylic acid] | 2 (2=21-40%) | 2 (2=21-40%) | 2 (2=21-40%) | 2 (2=21-40%) | 2 (2=21-40%) | 0 | 0 | 0 | 0 | 0 | 0 | 0 |

Reference: patent publication US12660819B2, “Herbicidal derivatives” (SYNGENTA CROP PROTECTION AG, priority 2020, dated 2026)
